Test results published in the NIST ThermoML archive (doi:10.1016/j.fluid.2006.03.014).
± gives the expanded uncertainty stated by the source.

Conditions: Liquid

CC(C)(N)CO [2-amino-2-methylpropan-1-ol]
Conditions	vapor or sublimation pressure [kPa]
373.25 K	8 ± 0.4
381.35 K	12 ± 0.4
388.05 K	16 ± 0.4
393.05 K	20 ± 0.4
397.25 K	24 ± 0.4
401.05 K	28 ± 0.5
404.45 K	32 ± 0.5
407.75 K	36 ± 0.5
410.35 K	40 ± 0.5
412.95 K	44 ± 0.5
415.15 K	48 ± 0.6
416.65 K	50.7 ± 0.6
418.15 K	53.3 ± 0.6
419.95 K	57.3 ± 0.6
421.85 K	61.3 ± 0.6
423.65 K	65.3 ± 0.6
424.45 K	66.7 ± 0.6
425.55 K	69.3 ± 0.7
427.15 K	73.3 ± 0.7
429.65 K	80 ± 0.7
429.75 K	80 ± 0.7
431.85 K	85.3 ± 0.7
433.65 K	90.7 ± 0.8
435.35 K	96 ± 0.8
436.85 K	101.3 ± 0.9
